Laboratory results reported in patent US20180263975A1, “Methods Of Treating Motor And Movement Disorders And Side Effects Thereof Associated with Parkinson's Disease Treatments” (AMARANTUS BIOSCIENCE HOLDINGS, INC., priority 2015, published 2018).
“Also recorded” adds a separate entry of the source.

Assays:
[1] = test system: Parkinson's patients with L-DOPA induced dyskinesias; test: Clinical Dyskinesia Rating Scale (CDRS) rating of L-DOPA induced dyskinesia after a levodopa challenge dose; assay type: in vivo, human
From the text: (§1) This example describes a multicenter, randomized, double-blind, placebo-controlled, dose finding study of oral eltoprazine in Parkinson's patients with L-DOPA induced dyskinesias, in a levodopa challenge-dose setting in Parkinson's Disease. A total of 22 patients participated in the study, out of which 18 patients fulfilled the protocol in terms of eligibility, interventions, and outcome assessment.
During the first visit, patients underwent screening for inclusion/exclusion criteria and safety assessments. Symptoms of parkinsonism, depression, and anxiety were assessed, and screening for significant L-DOPA dyskinesias were conducted using a challenge dose (150%) of L-DOPA. Subjects who were taking a prohibited medication were required to complete a washout period of appropriate length, as determined by the investigator. […]
(§2) During each of five visits, and after a two-hour fast, each patient received a challenge dosage (150%—up to a maximum of 250 mg) of levodopa. […] The patients were periodically recorded for 180 minutes after treatment, and the videos were evaluated in a blinded manner. […]
(§3) Filming occurred 30 minutes prior to, and every 30 minutes up to 180 minutes after a challenge test of L-DOPA and study medication. […] Videotaped records of each sequence were assessed by separate individual qualified raters at both of the two clinical centers. […]

[2] = test system: Parkinson's patients with L-DOPA induced dyskinesias; test: UPDRS-III rating of parkinsonian symptoms (levodopa efficacy) after a levodopa challenge dose; assay type: in vivo, human; conditions: 5 mg and 7.5 mg doses
From the text: as §1, §2
Filming occurred 30 minutes prior to, and every 30 minutes up to 180 minutes after a challenge test of L-DOPA and study medication. […] Videotaped records of each sequence were assessed by separate individual qualified raters at both of the two clinical centers.
Analyses were done on both the intention-to-treat (ITT) and per protocol (PP) population, if applicable. The change between test sessions of the highest observed Unified Parkinson's Disease Rating Scale-III (UPDRS) within each session will be calculated between the randomized placebo test session and each active test session and will be analyzed with Wilcoxon Signed Rank test on the ITT population.

[3] = test system: Parkinson's patients with L-DOPA induced dyskinesias; test: Rush Dyskinesia Rating Scale AUC after a levodopa challenge dose; assay type: in vivo, human; conditions: 5 mg dose
From the text: as §1, with “assessment. […]” for “assessment.”
During each of five visits, and after a two-hour fast, each patient received a challenge dosage (150%—up to a maximum of 250 mg) of levodopa. […] The patients were periodically recorded for 180 minutes after treatment, and the videos were evaluated in a blinded manner.
The term “Rush Dyskinesia Rating Scale” and “Rush DRS” refer to an observer-based rating scale based on fixed movements. The numerical parts of the Rush DRS are recorded separately from the descriptive parts, as described by Goetz et al., in Movement Disorders, Vol. 9, No. 4, 1994, 390-394.
as §3

[4] = test system: Parkinson's patients with L-DOPA induced dyskinesias; test: Safety and tolerability in the dose finding study; assay type: in vivo, human; conditions: single oral doses 2.5, 5, 7.5 mg in PD patients
From the text: This study also assessed the safety and tolerability of eltoprazine in adults with Parkinson's Disease using the following measures: a) population mean values for the change in dyskinesia ratings between the placebo and screening baseline values and any of the eltoprazine dosages used, calculated as the peak-effect on CDRS of any study medication; b) population mean values for the change in dyskinesia ratings between the placebo and screening baseline values and any of the eltoprazine dosages used, calculated as the AuC on Rush DRS of any study medication; c) any changes in the UPDRS-III total score; d) any change in the diary data set, between the baseline and placebo and any of the three study medication tests; e) any deterioration of the HADS scores after study medication compared with placebo; f) any development of depression over the course of the study period, determined by the Montgomery Asberg Depression Rating Scale (MADRS) and clinical judgment; g) comparison between the effects on Rush Dyskinesia Rating Scale (DRS) and Clinical Dyskinesia Rating Scale (CDRS) Area under the Curve (AuC) and peak of dose effects for the three study medication dosages.
After screening, each patient participated in the study for approximately 6-10 weeks. The duration of the study was about 30 weeks. […]

[5] = test system: 5-HT1a/5-HT1b receptor; conditions: cited from earlier work
[6] = test system: 5-HT1d receptor; conditions: Sijbesma 1990; cited from earlier work
[7] = test system: dopamine receptors; conditions: cited from earlier work
[8] = Daytime plasma concentration of eltoprazine under dosing regimens

For `c1cc2c(c(N3CCNCC3)c1)OCCO2` [eltoprazine, 1-(2,3-dihydro-1,4-benzodioxin-5-yl) piperazine], the “reduction of LID measured by the CDRS scale, compared to placebo” value ([1]; 5 mg single oral dose with 150% L-DOPA challenge, p=0.0007) was “statistically significantly reduced LID”, the “reduction of LID measured by the CDRS scale, compared to placebo” value ([1]; 7.5 mg single oral dose with 150% L-DOPA challenge, p=0.0467) was “statistically significantly reduced LID” and the “effect on L-DOPA efficacy measured by the UPDRS score (UPDRS-III)” value [2] was “did not affect L-DOPA efficacy; also recorded: no significant change”. The “reduction of LID measured by the Rush Scale AUC” value [3] was “reduced LID in PD patients statistically significantly”, the serious adverse events [4] was “no serious adverse events” and the tolerability [4] was “well tolerated”. For the same compound, the “affinity for 5-HT1a versus 5-HT1b receptors, mixed agonist” value ([5]; Schipper 1990) was “roughly equipotent affinity”, the “receptor selectivity of binding profile” value ([5]; with respect to all receptors other than 5-HT1, Sijbesma 1990) was “selective 5-HT1 ligand” and the “affinity for the 5-HT1d receptor compared with serotonin” value [6] was “lower affinity”. The “affinity for dopamine receptors” value [7] was “no relevant affinity”, the “daytime plasma concentration profile (FIG. 4)” value ([8]; 5 mg and 7.5 mg b.d. at 4 hour intervals (2.5, 5, 7.5, 10 mg compared)) was “optimizes daytime plasma concentration from 10 AM to 8 PM” and the “daytime plasma concentration profile (FIG. 3)” value ([8]; 7.5 mg twice daily at 4 or 6 hourly intervals (4, 6, 8, 12 h compared)) was “optimizes daytime plasma concentration from 10 AM to 8 PM”. For the same compound, the “plasma concentration of drug” value ([8]; dose of 5 mg) was “approximately 10 ng/ml”, the “plasma concentration of drug” value ([8]; dose of 7.5 mg) was “approximately 17 ng/ml” and the “plasma concentration profile (FIG. 5)” value ([8]; three times daily 2.5, 5, 7.5 mg at 4 hour intervals) was “achieve maximal plasma concentrations in the late afternoon/evening period into the night time”.
